The values below come from US20250042912A1, “NOVEL NON-FLUORINATED QUINOLONE COMPOUND AND USE THEREOF” (priority 2021, published 2025).

The test system of test [1] is Propionibacterium acnes ATCC 6919. The test can be described thus: Minimum inhibitory concentration (MIC) assay, Propionibacterium acnes ATCC 6919. The following applies: Cutibacterium acnes, ATCC6919; anaerobic culture 35+/-2°C, 48 hours; read with naked eyes. In kind it is cell-based. How it is done:
On the day of the experiment, the compound in the flask was dissolved in 100% DMSO until the concentration of mother liquor was 0.4 mg/mL. If the mother liquor was not used on the same day, it was stored at −80° C. for future use. The compound mother liquor and standard antibiotics were subjected to 2-fold gradient dilution with corresponding solvents on a 96-microwell plate (V-bottom) to obtain 100× working solutions (Well 1 to Well 7) in sequence. Among them, the concentrations of the compound were 400 μg/mL, 200 μg/mL, 100 μg/mL, 50 μg/mL, 25 μg/mL, 12.5 μg/mL, 6.25 μg/mL, and 3.125 μg/mL. 100% DMSO was used as growth control (Well 8). As such, the compound motherplate was obtained. Two days before the experiment, anaerobic bacteria (Propionibacterium acnes) stored in a cryogenic tube at −80° C. were scribed on an MBA (Brucella Agar+5% (v/v) defibrillated sheep blood+[…] Hemin+1 μg/mLVitamin K1) plate. The anaerobic bacteria were placed in a 35+/−2° C. anaerobic incubator for 42-48 hours of cultivation. On the day of the experiment, the plate was taken out, clones were picked from the plate and suspended in physiological saline. Then, the turbidity of the bacterial suspension (containing 1.0-2.0×10^8 CFU/mL) was adjusted to OD600=0.2 by a turbidity meter. Then, the adjusted bacterial suspension was diluted to an appropriate concentration with the assay culture medium: about 5×10^5 CFU/mL for aerobic bacteria, and about 1×10^6 CFU/mL for anaerobic bacteria. As such, the inoculating solution was obtained. […] Therefore, the final assay concentrations of the compound were 4 μg/mL, 2 μg/mL, 1 μg/mL, 0.5 μg/mL, 0.25 μg/mL, 0.125 μg/mL, 0.06 μg/mL and 0.03 μg/mL. The total volume of each well on the assay plate was 200 μL: containing 1% DMSO, about 5×10^5 CFU/mL of aerobic bacteria and about 1×10^6 CFU/mL of anaerobic bacteria. All assay plates for aerobic bacteria were aerobically cultured at 35+/−2° C. for 16 to 20 hours, and all assay plates for anaerobic bacteria were anaerobically cultured in an anaerobic incubator at 35+/−2° C. for 48 hours. Note: for anaerobic bacteria, both the preparation of bacterial solution in step 2 and the inoculation of bacterial solution in step 3 were operated in an anaerobic workstation.

For test [2] the test system is unchanged. The test can be described thus: Acne model in mice: ear bacterial load. In kind it is in vivo. As for the experimental part:
Experimental strain: Propionibacterium acnes ATCC 6919 (Beijing Biobw Biotechnology Co., Ltd.) Experimental animals: Balb/C mice (Zhejiang Vital River Laboratory Animal Technology Co., Ltd.) Balb/C mice were grouped and numbered, and adaptively fed for one week. On the day of modeling, Propionibacterium acnes was taken, and OD600 was measured using a microplate reader. BH1 culture medium was diluted to OD600=1 (about 5×10^8 CFU/mL), centrifuged to discard supernatant, and the remaining culture was diluted to 1×10^8 CFU/mL with PBS. Once the molding began, the mice were anesthetized with a small animal anesthesia machine, the air flow and isoflurane content of the anesthesia machine were adjusted, and the mice were placed in an anesthesia induction chamber for anesthesia induction. After there were no obvious signs of activity, the mice were taken out and their toes were clamped with tweezers or hemostatic forceps for toe pinching reaction testing, if there was no retraction pain response, the surgery could be performed. The anesthetized mice were placed on a mice plate and fixed, the air flow or isoflurane content was adjusted to maintain anesthesia (isoflurane anesthesia induction content of 3% to 4%, anesthesia maintenance content of 1% to 2%, and air flow rate of 300 mL/min to 500 mL/min). […]

Each structure is given as a SMILES string. ≈ marks a conversion by molar mass, not a printed value.

For the molecule `CN(C)c1cc2c(cn1)-c1ccc3c(=O)c(C(=O)O)cn(C4CC4)c3c1COC2` [Compound 6], the lowest concentration to inhibit growth in test [1] (MIC) was 0.03 µg/mL (≈ 0.0766 µM). Moreover, in test [2] (Balb/C mice, left ear homogenate, 48 hours after injection of Propionibacterium acnes, 15 μL applied at 4, 20, 28, 44 hours, drugs as hydrochloride), the “Ear bacterial load Log10 CFU/Ear Mean ± SD” value is 5.53 ± 0.10 Log10 CFU/Ear. For the same molecule, the “bacterial loads in the left ears of mice after treatment” value in test [2] (compared with acne model group, p<0.001, in words) is “significantly decreased”.
